Experiment [1] can be described thus: Concentration required for inhibition of 5-alpha-Dihydrotestosterone (DHT) stimulated shionogi cell proliferation was determined. The conditions noted are these: Mus musculus. The experiment is classed as functional.
Experiment [2] can be described thus: Concentration required for inhibition of 5-alpha-Dihydrotestosterone (DHT) stimulated shionogi cell proliferation was determined; No activity was observed at 1 uM. Conditions: Mus musculus. The experiment is classed as functional.

17 compounds from ChEMBL document CHEMBL1150478, “Synthesis and in vitro antiandrogenic activity of 17-hydroxy-17-(-hydroxy/haloalkyn-1-yl)-4-methyl-4-aza-3-oxo-5-androstan-(1-ene)-3-ones” (Bioorg Med Chem Lett, 1995) can be followed below.

A word on the IC50: it is the point on the concentration scale where inhibition reaches its midpoint. Compound `CN1C(=O)CC[C@]2(C)C3CC[C@@]4(C)C(CC[C@@]4(O)C#CCCCBr)C3CCC12` (some centres not stated) showed an IC50 in experiment [1] of 325 nM.

In experiment [1], `CN1C(=O)CC[C@]2(C)C3CC[C@@]4(C)C(CC[C@@]4(O)C#CCCBr)C3CCC12` (some centres not stated) returned an IC50 of 279 nM.

`CN1C(=O)C=C[C@]2(C)C3CC[C@@]4(C)C(CC[C@@]4(O)C#CCCO)C3CCC12` (some centres not stated) had an IC50 in experiment [2] above 1000 nM.

In experiment [2], `CN1C(=O)CC[C@]2(C)C3CC[C@@]4(C)C(CC[C@@]4(O)C#CCCCO)C3CCC12` (some centres not stated) had an IC50 above 1000 nM.

Take `CN1C(=O)C=C[C@]2(C)C3CC[C@@]4(C)C(CC[C@@]4(O)C#CCCCI)C3CCC12` (some centres not stated): inhibition in experiment [1] was half-maximal at 179 nM (IC50).

For the compound `CN1C(=O)CC[C@]2(C)C3CC[C@@]4(C)C(CC[C@@]4(O)C#CCCCCl)C3CCC12` (some centres not stated), the IC50 in experiment [1] came out at 129 nM.

In turn, `CN1C(=O)CC[C@]2(C)C3CC[C@@]4(C)C(CC[C@@]4(O)C#CCCI)C3CCC12` (some centres not stated) came in with an IC50 in experiment [1] of 160 nM.

Turning to `CN1C(=O)CC[C@]2(C)C3CC[C@@]4(C)C(CC[C@@]4(O)C#CCCCI)C3CCC12` (some centres not stated), in experiment [1], the IC50 was determined as 328 nM.

In experiment [1], `CN1C(=O)C=C[C@]2(C)C3CC[C@@]4(C)C(CC[C@@]4(O)C#CCCCCl)C3CCC12` (some centres not stated) came in with an IC50 of 67.2 nM.

For `CN1C(=O)C=C[C@]2(C)C3CC[C@@]4(C)C(CC[C@@]4(O)C#CCCCBr)C3CCC12` (some centres not stated), it took 149 nM to reach half-maximal inhibition in experiment [1] (IC50).

In the case of `CN1C(=O)C=C[C@]2(C)C3CC[C@@]4(C)C(CC[C@@]4(O)C#CCCBr)C3CCC12` (some centres not stated), in experiment [1], the midpoint of inhibition, the IC50, lay at 142 nM.

Take `CN1C(=O)C=C[C@]2(C)C3CC[C@@]4(C)C(CC[C@@]4(O)C#CCCI)C3CCC12` (some centres not stated): in experiment [1], the 50% inhibitory concentration (IC50) was 96.8 nM.

As to `CN1C(=O)C=C[C@]2(C)C3CC[C@@]4(C)C(CC[C@@]4(O)C#CCCCO)C3CCC12` (some centres not stated), the IC50 in experiment [2] was above 1000 nM.

Compound `CN1C(=O)CC[C@]2(C)C3CC[C@@]4(C)C(CC[C@@]4(O)C#CCCO)C3CCC12` (some centres not stated) gave an IC50 in experiment [2] above 1000 nM.

As for `CN1C(=O)C=C[C@]2(C)C3CC[C@@]4(C)C(CC[C@@]4(O)C#CCCCl)C3CCC12` (some centres not stated), in experiment [1], the midpoint of inhibition, the IC50, lay at 94.5 nM.

In experiment [1], `CN1C(=O)CC[C@]2(C)C3CC[C@@]4(C)C(CC[C@@]4(O)C#CCCCl)C3CCC12` (some centres not stated) displayed an IC50 of 250 nM.

`CC(C)(O)C(=O)Nc1ccc([N+](=O)[O-])c(C(F)(F)F)c1` [HYDROXYFLUTAMIDE] registered an IC50 in experiment [1] of 52.5 nM.
